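Exposure lasted 48 hours, with cells grown in 96-well plates and compounds tested at five concentrations. Here, GI50 denotes the concentration required for 50% inhibition of growth. TGI is the concentration that stops growth completely.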

Test systems include 786-0 renal; EKVX NSCLC; K-562 leukemia; NCI-H23 lung; NCI-H522 lung; NCI/ADR-RES ovarian; OVCAR-5 ovarian; RXF 393 renal; SK-MEL-28 melanoma; SN12C renal.
What all share (assay): DTP human tumour cell line panel, 48 h

In the case of `C[C@H]1COCCN1c1cc(C2(S(=O)(=O)C3CC3)CC2)nc(-c2ccc(NC(=S)NCCO)cc2)n1`, the GI50 (in general, the concentration that inhibits growth by half) is 38.2 nM with 786-0 renal; 26.7 nM in the assay with EKVX NSCLC; 49.8 nM in the assay on K-562 leukemia; 36 nM in the assay on NCI-H23 lung; 21.5 nM with NCI-H522 lung; 1930 nM in the assay on NCI/ADR-RES ovarian. Moreover, the GI50 was 40.5 nM with OVCAR-5 ovarian, less than 11.2 nM in the assay on RXF 393 renal, less than 10 nM in the assay on SK-MEL-28 melanoma and 26.3 nM with SN12C renal. For the same compound, the TGI (commonly the concentration at which net growth stops) in the assay with 786-0 renal is 3490 nM; with EKVX NSCLC, 3760 nM; with K-562 leukemia, greater than 100000 nM; in the assay with NCI-H23 lung, 30600 nM; in the assay with NCI-H522 lung it was 64800 nM; with NCI/ADR-RES ovarian, 47800 nM. Further, the TGI with OVCAR-5 ovarian was greater than 100000 nM; in the assay on RXF 393 renal, 68.9 nM; in the assay on SK-MEL-28 melanoma, 1100 nM; in the assay with SN12C renal it was 61200 nM.

`C=C1C(=O)O[C@H]2[C@H]1CC/C(COC(=O)CCCc1c[nH]c3ccccc13)=C\CC[C@@]1(C)O[C@@H]21`: the GI50 was 1600 nM with 786-0 renal; 2020 nM in the assay with EKVX NSCLC; 2600 nM in the assay on K-562 leukemia; 1720 nM in the assay with NCI-H23 lung; 1570 nM in the assay on NCI-H522 lung; 2900 nM in the assay with NCI/ADR-RES ovarian. Further, the GI50 is 1890 nM in the assay on OVCAR-5 ovarian, 1460 nM in the assay with RXF 393 renal, 1700 nM in the assay with SK-MEL-28 melanoma and 1900 nM in the assay on SN12C renal. Further, the TGI with 786-0 renal was 3200 nM; in the assay with EKVX NSCLC, 5010 nM; with K-562 leukemia it was 11000 nM; in the assay on NCI-H23 lung it was 3470 nM; with NCI-H522 lung it was 3470 nM; with NCI/ADR-RES ovarian it was 10900 nM. The TGI turned out to be 3980 nM in the assay with OVCAR-5 ovarian, 2850 nM in the assay on RXF 393 renal, 3270 nM with SK-MEL-28 melanoma and 4440 nM with SN12C renal.

Turning to `O=C(c1ccccc1)c1c(C(F)(F)F)n([O-])c2cc(C(F)(F)F)ccc2[n+]1=O`, the GI50 in the assay on 786-0 renal is 655 nM; in the assay on EKVX NSCLC, 1730 nM; with K-562 leukemia, 231 nM; in the assay with NCI-H23 lung, 1540 nM; with NCI-H522 lung, 1230 nM; in the assay with NCI/ADR-RES ovarian, 2010 nM. The GI50 in the assay on OVCAR-5 ovarian was 1990 nM; in the assay on RXF 393 renal, 1340 nM; in the assay with SK-MEL-28 melanoma it was 1710 nM; with SN12C renal, 1830 nM. The TGI in the assay with 786-0 renal worked out at 1400 nM; in the assay with EKVX NSCLC, 3420 nM; with K-562 leukemia, 559 nM; with NCI-H23 lung, 4900 nM; with NCI-H522 lung it was 2720 nM; in the assay on NCI/ADR-RES ovarian it was 5120 nM. Moreover, the TGI with OVCAR-5 ovarian was 5540 nM; with RXF 393 renal, 2920 nM; in the assay with SK-MEL-28 melanoma, 3230 nM; in the assay on SN12C renal, 4400 nM.

With `CCCCCCCC/C=C1\CCC(CN2CCOCC2)C1=O` (stereo not given), the TGI in the assay with 786-0 renal is 3070 nM; in the assay with EKVX NSCLC, 32900 nM; in the assay on K-562 leukemia, 8680 nM; in the assay on NCI-H23 lung, 24400 nM; in the assay on NCI-H522 lung, 6790 nM; in the assay on NCI/ADR-RES ovarian, 14400 nM. Further, the TGI was determined as 36500 nM in the assay with OVCAR-5 ovarian, 25300 nM with RXF 393 renal, 21200 nM in the assay with SK-MEL-28 melanoma and 12500 nM in the assay with SN12C renal.

With `O=C(/C=C1\C(=O)N(Cc2ccccc2)c2ccccc21)c1ccc(OCCN2CCCCC2)cc1`, the GI50 was 1580 nM in the assay with 786-0 renal; 2360 nM with EKVX NSCLC; 1840 nM in the assay with K-562 leukemia; 3470 nM with NCI-H23 lung; 1710 nM with NCI-H522 lung; 3140 nM in the assay with NCI/ADR-RES ovarian. In addition, the GI50 was 1760 nM with OVCAR-5 ovarian, 1650 nM in the assay on RXF 393 renal, 2090 nM with SK-MEL-28 melanoma and 1900 nM in the assay on SN12C renal. In addition, the TGI in the assay on 786-0 renal was found to be 3060 nM; with EKVX NSCLC, 7480 nM; in the assay on K-562 leukemia, 6530 nM; in the assay on NCI-H23 lung it was 14500 nM; with NCI-H522 lung it was 3210 nM; with NCI/ADR-RES ovarian, 11700 nM. Further, the concentration for total growth inhibition (TGI) with OVCAR-5 ovarian is 3600 nM; in the assay on RXF 393 renal it was 3170 nM; with SK-MEL-28 melanoma, 4360 nM; in the assay with SN12C renal, 4030 nM.

Regarding `O=C(c1ccco1)c1c(C(F)(F)F)n([O-])c2cc(C(F)(F)F)ccc2[n+]1=O`, the GI50 in the assay with 786-0 renal was 479 nM; in the assay on EKVX NSCLC it was 859 nM; in the assay with K-562 leukemia, 172 nM; in the assay with NCI-H23 lung, 1150 nM; in the assay on NCI-H522 lung, 540 nM; in the assay on NCI/ADR-RES ovarian it was 801 nM. Also, the GI50 in the assay with OVCAR-5 ovarian is 1860 nM; with RXF 393 renal, 430 nM; in the assay with SK-MEL-28 melanoma it was 1670 nM; in the assay with SN12C renal, 1290 nM. Moreover, the TGI with 786-0 renal was found to be 998 nM; in the assay on EKVX NSCLC it was 2360 nM; in the assay on K-562 leukemia it was 379 nM; in the assay on NCI-H23 lung it was 2620 nM; with NCI-H522 lung, 1170 nM; with NCI/ADR-RES ovarian it was 4330 nM. Also, the TGI with OVCAR-5 ovarian was 3390 nM; in the assay on RXF 393 renal, 929 nM; with SK-MEL-28 melanoma it was 3270 nM; with SN12C renal, 3450 nM.

For the compound `CC(=O)O[C@H]1C(=O)[C@@]2(C)[C@H]([C@H](OC(=O)c3ccccc3)[C@]3(O)C[C@H](OC(=O)[C@H](OC(=O)OC[C@H]4COC(C)(C)O4)[C@@H](NC(=O)c4ccccc4)c4ccccc4)C(C)=C1C3(C)C)[C@]1(OC(C)=O)CO[C@@H]1C[C@@H]2O`, the GI50 with 786-0 renal was 122 nM; in the assay with EKVX NSCLC, 113 nM; in the assay on K-562 leukemia, 12.2 nM; in the assay on NCI-H23 lung it was 47.6 nM; in the assay with NCI-H522 lung, 32.4 nM; with NCI/ADR-RES ovarian it was greater than 33300 nM. Moreover, the GI50 is 43.3 nM in the assay on OVCAR-5 ovarian, 30.7 nM with RXF 393 renal, greater than 33300 nM in the assay with SK-MEL-28 melanoma and 48.3 nM in the assay on SN12C renal. The TGI in the assay with 786-0 renal, in the assay with EKVX NSCLC, with K-562 leukemia, in the assay on NCI-H23 lung, in the assay with NCI-H522 lung and with NCI/ADR-RES ovarian was greater than 33300 nM throughout. For the same compound, the total growth inhibition concentration (TGI) in the assay with OVCAR-5 ovarian is greater than 33300 nM; in the assay with RXF 393 renal it was 201 nM; in the assay on SK-MEL-28 melanoma it was greater than 33300 nM; in the assay on SN12C renal, greater than 33300 nM.

These data come from PubChem BioAssay (NCI).
